In patent US12532889B2, “Herbicidal compositions comprising glufosinate” (BASF SE, priority 2023, dated 2026):

Tests used:
Test in all cases: Post-emergence application in field trials (Example A)
Format in all cases: in vivo
[1] = tested on: AMASP (Amaranthus spinosus); settings: Table 5.5; AMASP growth stage 72; A-1 25, B-6 252 g ai/ha; 28 DAT; water 400 l/ha
Procedure, shortened: (§1)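 Field plots with natural or seeded weeds were treated post-emergence, solo or in mixtures. Damage was rated visually at stated days after treatment on a 0–100% scale against untreated plants; expected additive mixture activity calculated by the Colby method.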

[2] = tested on: COMDI (Commelina diffusa); settings: Table 5.3; COMDI growth stage 76-77; A-1 25, B-6 252 g ai/ha; 28 DAT; water 300 l/ha
Procedure, shortened: as §1

CYNDA (Cynodon dactylon) = settings: A-1 25, B-6 252 g ai/ha, 28 DAT, water 400 l/ha
Procedure, shortened: as §1

[3] = tested on: CYPKH (Cyperus kyllingia var. humilis); settings: Table 5.4; CYPKH growth stage 76-77, height 13-14 cm; A-1 25, B-6 252 g ai/ha; 28 DAT; water 400 l/ha
Procedure, shortened: as §1

GLXMA (Glycine max) = settings: 21 DAT, growth stage 13, height 5-10 cm
Procedure, shortened: as §1

[4] = tested on: PASSC (Paspalum scrobiculatum); settings: Table 5.2, A-1 25, B-6 252 g ai/ha, 21 DAT, water 450 l/ha
Procedure, shortened: as §1

[5] = tested on: SETPA (Setaria palmifolia); settings: Table 5.3; SETPA growth stage 76-77; A-1 25, B-6 252 g ai/ha; 28 DAT; water 300 l/ha
Procedure, shortened: as §1

[6] = tested on: AMAPA (Amaranthus palmeri); settings: Table 1.27, AMAPA height 30 cm, 21 DAT, water 200 l/ha
Procedure, shortened: as §1

AVESG (Avena strigosa) = settings: Table 1.6; AVESG growth stage 11-21, height 5-10 cm; A-1 25, B-2 400 g ai/ha; 14 DAT; water 200 l/ha
Procedure, shortened: as §1

BIDPI (Bidens pilosa) = settings: Table 1.14; BIDPI height 20-45 cm; A-1 50, B-2 400 g ai/ha; 21 DAT; water 100 l/ha
Procedure, shortened: as §1

[7] = tested on: BOILF (Spermacoce latifolia); settings: Table 1.16, A-1 25, B-2 400 g ai/ha, 21 DAT, water 200 l/ha
Procedure, shortened: as §1

[8] = tested on: BRAPL (Brachiaria plantaginea); settings: BRAPL growth stage 24, A-1 50, B-2 400 g ai/ha, water 200 l/ha
Procedure, shortened: as §1

CNDSS (Conyza sp.) = settings: Table 1.5; CNDSS growth stage 26-59, height 15-55 cm; A-1 50, B-2 600 g ai/ha; 14 DAT; water 200 l/ha
Procedure, shortened: as §1

[9] = tested on: CYPES (Cyperus esculentus); settings: 21 DAT, water 140 l/ha
Procedure, shortened: as §1

CYPIR (Cyperus iria) = settings: Table 2.1, CYPIR growth stage 13-14, height 3-5 cm, 14 DAT, water 300 l/ha
Procedure, shortened: as §1

[10] = tested on: DIGHO (Digitaria horizontalis); settings: Table 1.4, DIGHO growth stage 24, 14 DAT, water 200 l/ha
Procedure, shortened: as §1

ERISS (Erigeron sp.) = settings: Table 1.8, ERISS height 30-50 cm, 14 DAT, water 200 l/ha
Procedure, shortened: as §1

GALAP (Galium aparine) = settings: Table 3.1; GALAP growth stage 11-16, height 2-20 cm; A-1 18, B-2 500 g ai/ha; 28 DAT; water 100 l/ha
Procedure, shortened: as §1

[11] = tested on: HORVS (Hordeum vulgare (spring barley)); settings: Table 3.1, HORVS volunteer barley, growth stage 22-24, height 32-35 cm, 28 DAT, water 100 l/ha
Procedure, shortened: as §1

IPOTR (Ipomoea triloba) = settings: 21 DAT
Procedure, shortened: as §1

[12] = Table 5.4, CYNDA growth stage 76-77, height 15-16 cm
[13] = Table 5.5, CYNDA growth stage 72
[14] = Table 4.2, A-1 25, B-2 655 g ai/ha
[15] = Table 4.2, A-1 50, B-2 655 g ai/ha
[16] = Table 1.11, A-1 25, B-2 400 g ai/ha, water 100 l/ha
[17] = Table 1.16, A-1 25, B-2 400 g ai/ha, water 200 l/ha

Row | Compound | % herbicidal activity [1] | % herbicidal activity [2] | % herbicidal activity (CYNDA (Cynodon dactylon); [12]) | % herbicidal activity (CYNDA (Cynodon dactylon); [13]) | % herbicidal activity [3] | % herbicidal activity [4] | % herbicidal activity [5] | % herbicidal activity ([6]; A-1 12.5, B-2 400 g ai/ha) | % herbicidal activity ([6]; A-1 25, B-2 400 g ai/ha) | % herbicidal activity (AVESG (Avena strigosa)) | % herbicidal activity (BIDPI (Bidens pilosa)) | % herbicidal activity [7] | % herbicidal activity ([8]; Table 1.18, 21 DAT) | % herbicidal activity ([8]; Table 1.4, 14 DAT) | % herbicidal activity (CNDSS (Conyza sp.)) | % herbicidal activity [9, 14] | % herbicidal activity [9, 15] | % herbicidal activity (CYPIR (Cyperus iria); A-1 12.5, B-2 500 g ai/ha) | % herbicidal activity (CYPIR (Cyperus iria); A-1 25, B-2 500 g ai/ha) | % herbicidal activity ([10]; A-1 25, B-2 400 g ai/ha) | also measured
1 | CP(=O)(O)CC[C@H](N)C(=O)O.N [B-6, glufosinate-P-ammonium] | 84% | 39% | 88% | 86% | 48% | 27% | 32% | – | – | – | – | – | – | – | – | – | – | – | – | – | % herbicidal activity (GLXMA (Glycine max); B-6 252 g ai/ha): 70%
2 | CCOC(=O)COc1ccccc1Oc1nc(-n2c(=O)cc(C(F)(F)F)n(C)c2=O)c(F)cc1Cl [A-1, ethyl 2-[2-[[3-chloro-5-fluoro-6-[3-methyl-2,6-dioxo-4-(trifluoromethyl)pyrimidin-1-yl]-2-pyridyl]oxy]phenoxy]acetate] | 84% | 60% | 53% | 72% | 61% | 22% | 65% | 70% | 85% | 78% | 74% | 72% | 42% | 85% | 72% | 22% | 42% | 30% | 60% | 57% | % herbicidal activity ([10]; A-1 50, B-2 400 g ai/ha): 65%; % herbicidal activity (ERISS (Erigeron sp.); A-1 25, B-2 400 g ai/ha): 13%; % herbicidal activity (ERISS (Erigeron sp.); A-1 50, B-2 400 g ai/ha): 18%; % herbicidal activity (GALAP (Galium aparine)): 79%; % herbicidal activity (GLXMA (Glycine max); A-1 12.5 g ai/ha): 90%; % herbicidal activity ([11]; A-1 12.5, B-2 500 g ai/ha): 40%; % herbicidal activity ([11]; A-1 18, B-2 500 g ai/ha): 85%; % herbicidal activity (IPOTR (Ipomoea triloba); [16]): 85%; % herbicidal activity (IPOTR (Ipomoea triloba); [17]): 82%
3 | CP(=O)(O)CCC(N)C(=O)O (stereo not shown) [B-2, glufosinate-ammonium] | – | – | – | – | – | – | – | 20% | 20% | 83% | 55% | 73% | 18% | 55% | 90% | 18% | 18% | 77% | 77% | 30% | % herbicidal activity ([10]; A-1 50, B-2 400 g ai/ha): 30%; % herbicidal activity (ERISS (Erigeron sp.); A-1 25, B-2 400 g ai/ha): 40%; % herbicidal activity (ERISS (Erigeron sp.); A-1 50, B-2 400 g ai/ha): 40%; % herbicidal activity (GALAP (Galium aparine)): 27%; % herbicidal activity ([11]; A-1 12.5, B-2 500 g ai/ha): 15%; % herbicidal activity ([11]; A-1 18, B-2 500 g ai/ha): 15%; % herbicidal activity (IPOTR (Ipomoea triloba); [16]): 60%; % herbicidal activity (IPOTR (Ipomoea triloba); [17]): 68%
